Measured values taken from US8455435B2, “Remedies for ischemia” (Ludwig-Maximilians-Universitat Munchen, priority 2006, dated 2013).
Values joined by “and” are separate entries in the source; they are usually repeats but may differ in a detail not shown here. Equal entries are not always repeated.

Tests used:
SCF = SCF serum level by ELISA after PTH; assay type: in vivo, C57BL/6 mice; settings: day 6 of PTH stimulation
Experimental: (§1) Mice were divided into the following groups: 1) administration of saline daily for 6 days, sacrificed at day 7 (n=6). 2) administration of PTH (Bachem) daily for 6 consecutive days (80 μg per kg body weight per day, intraperitoneally), sacrificed at day 7 (n=6). 3) administration of PTH daily for 14 consecutive days, sacrificed at day 15 (n=6). 4) administration of G-CSF (Amgen Biologicals) daily for 5 consecutive days (200 μg per kg body weight per day, intraperitoneally), sacrificed at day 6 (n=6).
(§2) G-CSF and SCF serum levels were determined by ELISA (Mouse G-CSF and Mouse SCF, RayBiotech).

myocardial function = test: Pressure volume relations in vivo (conductance catheter) after MI, PTH treatment; design: species or system C57BL/6 mice
Experimental: (§3) Myocardial infarction was induced in male C57BL/6 mice 8-12 weeks of age by surgical occlusion of the left anterior descending artery (LAD) through a left anterolateral approach. Mice were anesthetized by intraperitoneal injection of a mixture of 100 mg/kg ketamine (Sigma Chemical Co., St. Louis, Mo.) and 5 mg/kg Xylazine (Sigma), intubated and artificially ventilated by a mouse ventilator (HUGO SACHS, March, Germany) with 200 strokes/min and 200 μl/stroke. Animal care and all experimental procedures were performed in strict accordance to the German and National Institutes of Health animal legislation guidelines and were approved by the local animal care and use committees.
(§4) After occlusion of the LAD, mice were divided into the following groups 1) subcutaneous administration of saline daily for 5 days, sacrificed at day 6 (n=10) and day 30 (n=15); 2) administration of rat PTH (1-34) daily for 5 and 14 consecutive days (80 μg/kg/d s.c., Bachem), sacrificed at day 6 (n=9) and day 30 (n=15); 3) sham operated animals sacrificed at day 30 (n=5), and not operated control animals receiving saline (n=6) sacrificed at day 6 and at day 30. All animals received BrdU ([…]) for 5 consecutive days. BrdU and cytokine treatment were started 12-24 hours after LAD occlusion.
For evaluation of pressure-volume relationships in vivo, surviving mice of the group 1) MI day 6 (n=6) and day 30 (n=6), 2) MI+PTH day 6 (n=6) and day 30 (n=6), and 3) sham (n=5) and control (n=6) animals were anesthetized with thiopental (100 mg/kg, i.p.), intubated and ventilated (MiniVent, HUGO SACHS, Freiburg, Germany). After catheterization via the right carotid artery an impedance-micromanometer catheter (Millar Instruments, Houston, Tex.) was introduced into the left ventricle. Raw conductance volumes were corrected for parallel conductance by the hypertonic saline dilution method. For absolute volume measurements, the catheter was calibrated with known volumes of heparin treated mouse blood. Pressure-volume signals were recorded at steady state and during transient preload reduction achieved by vena cava occlusion to obtain values independent of cardiac afterload^45. Data analyses were performed as previously described^44 using PVAN analysis software (HUGO SACHS, March, Germany).

G-CSF = G-CSF serum level by ELISA after PTH; assay type: in vivo, C57BL/6 mice
Experimental: as §1, §2

infarcted left ventricle = test: Histology: infarct size, wall thickness, infarct composition after MI, PTH treatment; assay type: in vivo, C57BL/6 mice; settings: for LV-infarct size (area of necrosis and granulation tissue): day 6, % of total LV area
Experimental: as §3, §4
At day 6 (n=10) and day 30 (n=10), hearts were excised. After fixation in 4% phosphate buffered formalin the hearts were cut transversally into 2 mm thick slices and embedded in paraffin. 4 μm thick sections were cut and mounted on positively charged glass slides. Standard histological procedures (hematoxilin/eosin and Masson trichrome) and immunostaining (see below) were performed.
Infarct size was determined as area of infarction (Al) correlated to the area of the left ventricle (including LV-septum) in four different slices from the base to the apex of a heart. Total infarct size was calculated by multiplication of the mean percentage value of the circular infarct area with the quotient: vertical extension of the infarct area/total ventricular extension. Wall thickness was measured by taking the average length of five segments along radii from the centre of the left ventricle through the thinnest points of the free LV wall and the septal wall. All studies were performed by a blinded pathologist.

[1] = tested on: CD45+/CD34+ and CD45+/CD34- cell populations in peripheral blood; test: Flow cytometry of peripheral blood mononuclear cells after PTH or G-CSF in healthy mice; assay type: in vivo, C57BL/6 mice
Experimental: (§5) For the experiments healthy age- and sex-matched (male, 8-12 weeks of age) C57BL/6 mice (Charles River) were used. Animal care and all experimental procedures were performed in strict accordance to the German and National Institutes of Health animal legislation guidelines and were approved by the local animal care and use committees.
as §1
(§6) at day 6, 1 ml of peripheral blood was harvested from each mouse by aspirating the carotid artery. Bone marrow cells were obtained by flushing the tibias and femurs from the euthanized mice. Mononuclear cells were separated by density-gradient centrifugation using 1.077 g/mL Histopaque solution (Sigma Chemicals), purified and resuspended in phosphate-buffered saline (PBS) containing 1% bovine serum albumin. Cells were incubated for 40 minutes in the dark at 4° C. with following fluorescein-isothiocyanate (FITC), phycoerythrin (PE), and peridinin-chlorphyll-protein (PerCP) conjugated monoclonal antibodies: CD45-PerCP, C34-FITC, CD31-PE, Sca-1-PE and c-kit-PE (all from BD Pharmingen). Isotype-identical antibodies (BD Pharmingen) served as controls. Cells were analyzed by 3-color flow cytometry using a Coulter® Epics® XL-MCL™ flow cytometer (Beckman Coulter). Each analysis included 20000 events. The absolute number of antigen-positive cells per ml of whole blood was calculated by multiplying the percentage of antigen-positive cells with the total number of mononuclear cells per ml of blood detected by the conventional hematological cell analyzer. The number of lymphocytes together with the number of monocytes comprised the total number of mononuclear cells.

SDF-1 = SDF-1 expression in ischemic myocardium after PTH treatment; assay type: in vivo, mice; settings: 48 hours after PTH treatment
[2] = tested on: CD45+/CD34+ and CD45+/CD34- cell populations in bone marrow; test: Flow cytometry of bone marrow cells after PTH or G-CSF in healthy mice; assay type: in vivo, C57BL/6 mice
Experimental: as §5, §1, §6

## rat PTH (1-34)
SCF
  serum level of SCF: 594.6 ± 26.8 pg/mL
Myocardial function; PTH treatment of sham operated animals
  maximum LV pressure: 80.3±2.1 mmHg
Myocardial function; day 6 after MI
  arterial elastance (Ea): 6.1±0.5 mmHg/μl and 6.0 mmHg/μl
  cardiac output: 5537 µL/min
  contractility: 4742±394 mmHg/sec
  ejection fraction (EF): 30%
  stroke work: increased
Myocardial function; day 6 after MI, vs saline
  diastolic function (Tau glantz): without significant changes
Myocardial function; day 30 after MI
  arterial elastance (Ea): 7.2±0.5 mmHg/μl and 7.1 mmHg/μl
  cardiac output: 3810±205
  diastolic relaxation (Tau Glantz): 12.0 ± 0.8 ms
  ejection fraction (EF): 29.0±7.1% and 29%
  enddiastolic volume (EDV): 34.4±6.1
  stroke work: 382±59 mmHg×μl
G-CSF; PTH treated mice, ELISA
  increase of G-CSF serum value: 2.8 fold
G-CSF; day 6 of PTH stimulation
  serum level of G-CSF: 6035.5 ± 1318.4 pg/mL
Infarcted left ventricle; day 6
  anterior (free LV) wall thickness: 0.58 mm
  cellular density in the granulation tissue: 3317±171 /mm^2
Infarcted left ventricle
  LV-infarct size (area of necrosis and granulation tissue): 37%
Infarcted left ventricle; listed as rPTH(1-34)
  LV-infarct size (area of necrosis and granulation tissue): 37.3±4.9%
Infarcted left ventricle; day 30
  anterior (free LV) wall thickness: 0.22 mm
Infarcted left ventricle; day 30, vs saline
  frequency of large LV-aneurysms: lower frequency
Infarcted left ventricle; day 30 after LAD occlusion
  infarct size (area of fibrosis): 23.3±4.6% and 23%
[1]; PTH 80 μg/kg/d for 6 or 14 days, peripheral blood
  increase of subpopulations of CD45+/CD34+ and CD45+/CD34- cells: 1.5- to 9.8 fold
[1]; PTH 80 μg/kg/d vs G-CSF 200 μg/kg/d 5 days
  mobilization of CD45+/CD34+ cells by PTH compared to G-CSF treatment: 20-50%
[1]; PTH day 6 and day 14, G-CSF day 6
  subtypes of CD45+/CD34+ and CD45+/CD34- cells in peripheral blood: significant increase
[1]; in comparison to a control
  mobilization of stem cells which express c-kit: 5 fold
[1]; peripheral blood
  number of mobilized subtypes of CD45+/CD34+ cells, PTH compared with G-CSF: significant lower number
[1]; peripheral blood, p<0.05
  mobilized CD45+/CD34-/c-kit+ cells, PTH compared with G-CSF: 49-50%
SDF-1
  homing factor SDF-1 in the ischemic myocardium: upregulated
[2]; PTH day 6, G-CSF
  subtypes of CD45+/CD34- cells in bone marrow: significant decrease
[2]; PTH day 6 or day 14, G-CSF vs control group
  subtypes of CD45+CD34+ cells in bone marrow: no significant change
